Columns and labels:
[1] = biological target: T1, NAMPT (Homo sapiens, UniProt P43490); test: Biochemical inhibition assay: NAMPT enzymatic reaction, NMN quantified by mass spectrometry; conditions: NAMPT enzymatic assay; read-out: Biochem IC50
T1 construct: His tag; host or cells: E. coli
Outline: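 Inhibition of E. coli-expressed His-tagged human NAMPT, measured as NMN formation by mass spectrometry after a 30 min room-temperature reaction containing 1 μM NAM, 100 μM PRPP and 2.5 mM ATP.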

[2] = system: A2780 cells; test: In-vitro cell proliferation assay (SRB), A2780 cells; type: cell-based; conditions: Homo sapiens, A2780, 72 h, A2780 cells, 72 hours, SRB; read-out: A2780 IC50
Outline: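 SRB read-out: 6% TCA fix 1 h at 4° C., stain, Tris solubilize, A570. Media-only background subtracted; % inhibition from two compound concentrations.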

T1 sequence (P43490 whole entry): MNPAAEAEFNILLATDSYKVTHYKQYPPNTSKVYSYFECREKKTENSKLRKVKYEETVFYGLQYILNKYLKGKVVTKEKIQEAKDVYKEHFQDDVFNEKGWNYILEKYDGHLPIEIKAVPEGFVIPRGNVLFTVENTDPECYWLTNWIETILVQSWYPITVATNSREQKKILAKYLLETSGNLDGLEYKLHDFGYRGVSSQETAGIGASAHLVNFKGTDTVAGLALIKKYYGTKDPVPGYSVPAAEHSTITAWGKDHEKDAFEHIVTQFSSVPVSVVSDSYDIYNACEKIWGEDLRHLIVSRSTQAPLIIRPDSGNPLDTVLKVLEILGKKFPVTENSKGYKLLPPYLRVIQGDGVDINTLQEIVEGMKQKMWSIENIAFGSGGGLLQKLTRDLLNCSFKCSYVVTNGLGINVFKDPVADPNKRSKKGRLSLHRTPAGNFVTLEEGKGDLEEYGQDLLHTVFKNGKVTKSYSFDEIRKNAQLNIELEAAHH

Structure (SMILES) | IC50 [1] [nM] | IC50 [2] [nM]
O=C(NCc1ccc(S(=O)(=O)c2ccc(C(F)(F)F)cc2)cc1)c1cnc2nccn2c1 | 6 | 23.5
O=C(NCc1ccc(S(=O)(=O)c2ccc(C(F)(F)F)cc2)cc1)c1cc2ccncc2o1 | 8.7 | 19.8
O=C(NCc1ccc(S(=O)(=O)c2ccc(Cl)cc2C(F)(F)F)cc1)c1cc2ccncc2s1 | 7 | 9.6
O=C(NCc1ccc(S(=O)(=O)c2ccc(Cl)cc2C(F)(F)F)cc1)c1ccc2nccn2c1 | 19.8 | 8.5
O=C(NCc1ccc(S(=O)(=O)c2ccc(Cl)cc2C(F)(F)F)cc1)c1cc2cnccc2[nH]1 | 42.2 | 17.4
O=C(NCc1ccc(S(=O)(=O)c2ccc(Cl)cc2C(F)(F)F)cc1)c1cnc2nccn2c1 | 7.9 | 68.4
O=C(NCc1ccc(S(=O)(=O)c2ccc(Cl)cc2C(F)(F)F)cc1)c1cc2ccncc2o1 | 9.8 | 25.4
O=C(NCc1ccc(S(=O)(=O)c2ccc(Cl)c(C(F)(F)F)c2)cc1)c1cc2ccncc2o1 | 6 | 6.9
O=C(NCc1ccc(S(=O)(=O)c2ccc(Cl)c(C(F)(F)F)c2)cc1)c1cnc2nccn2c1 | 2.8 | 4.3
CC(C)Oc1cc(F)ccc1S(=O)(=O)c1ccc(CNC(=O)c2cc3cnccc3[nH]2)cc1 | 25.4 | 3.3
CC(C)Oc1cc(F)ccc1S(=O)(=O)c1ccc(CNC(=O)c2cc3ccncc3s2)cc1 | 5 | 1.6
CC(C)Oc1cc(F)ccc1S(=O)(=O)c1ccc(CNC(=O)c2ccc3nccn3c2)cc1 | 22.2 | 2.1
CC(C)Oc1cc(F)ccc1S(=O)(=O)c1ccc(CNC(=O)c2cc3ccncc3o2)cc1 | 15.6 | 13.9
O=C(NCc1ccc(S(=O)(=O)c2ccc(F)cc2C(F)(F)F)cc1)c1cc2ccncc2s1 | 6.4 | 14.3
O=C(NCc1ccc(S(=O)(=O)c2ccc(F)cc2C(F)(F)F)cc1)c1cnc2nccn2c1 | 18.7 | 100 to 1000
O=C(NCc1ccc(S(=O)(=O)c2ccc(F)cc2C(F)(F)F)cc1)c1cc2cnccc2[nH]1 | 27 | 14.1
O=C(NCc1ccc(S(=O)(=O)c2ccc(F)cc2C(F)(F)F)cc1)c1ccc2nccn2c1 | 4 | 15
O=C(NCc1ccc(S(=O)(=O)c2ccc(F)c(OCC(F)(F)F)c2)cc1)c1cc2ccncc2s1 | 3.3 | 11.8

Structure (SMILES) | IC50 [1] [nM] | IC50 [2] [nM]
O=C(NCc1ccc(S(=O)(=O)c2ccc(F)c(OCC(F)(F)F)c2)cc1)c1cc2ccncc2o1 | 8.7 | 25.5
O=C(NCc1ccc(S(=O)(=O)c2ccc(F)c(OCC(F)(F)F)c2)cc1)c1cnc2nccn2c1 | 2.4 | 6.5
O=C(NCc1ccc(S(=O)(=O)c2ccc(F)c(OCC(F)(F)F)c2)cc1)c1cc2cnccc2[nH]1 | 10.3 | 6.5
O=C(NCc1ccc(S(=O)(=O)c2ccc(F)c(C(F)(F)F)c2)cc1)c1cc2ccncc2s1 | 4 | 2.8
O=C(NCc1ccc(S(=O)(=O)c2ccc(F)c(C(F)(F)F)c2)cc1)c1cc2cnccc2[nH]1 | 16.4 | 4.3
O=C(NCc1ccc(S(=O)(=O)c2ccc(F)c(C(F)(F)F)c2)cc1)c1ccc2nccn2c1 | 4 | 1.7
O=C(NCc1ccc(S(=O)(=O)c2ccc(F)c(C(F)(F)F)c2)cc1)c1cc2ccncc2o1 | 8.2 | 7.2
COc1ccc(S(=O)(=O)c2ccc(CNC(=O)c3cnc4nccn4c3)cc2)c(C(F)(F)F)c1 | 7 | 65.7
COc1ccc(S(=O)(=O)c2ccc(CNC(=O)c3cc4ccncc4o3)cc2)c(C(F)(F)F)c1 | 14.6 | 15.2
COc1ccc(S(=O)(=O)c2ccc(CNC(=O)c3cc4cnccc4[nH]3)cc2)c(C(F)(F)F)c1 | 80.4 | 13
COc1ccc(S(=O)(=O)c2ccc(CNC(=O)c3cc4ccncc4s3)cc2)c(C(F)(F)F)c1 | 21.7 | 13
CCN(CC)C(=O)c1ccc(F)c(S(=O)(=O)c2ccc(CNC(=O)c3cc4cnccc4[nH]3)cc2)c1 | 38.4 | 26.2
O=C(NCc1ccc(S(=O)(=O)c2cc(Cl)ccc2OCC(F)F)cc1)c1ccc2nccn2c1 | 2 | 0.3
O=C(NCc1ccc(S(=O)(=O)c2cc(Cl)ccc2OCC(F)F)cc1)c1cc2cnccc2[nH]1 | 5 | 0.5
O=C(NCc1ccc(S(=O)(=O)c2cc(Cl)ccc2OCC(F)(F)F)cc1)c1ccc2nccn2c1 | 1 | 0.3
C#CCOc1ccc(Cl)cc1S(=O)(=O)c1ccc(CNC(=O)c2ccc3nccn3c2)cc1 | 7 | 1.4
CC(C)Oc1ccc(Cl)cc1S(=O)(=O)c1ccc(CNC(=O)c2cc3ccncc3o2)cc1 | 9.1 | 12.1
O=C(NCc1ccc(S(=O)(=O)c2cc(F)ccc2CO)cc1)c1cc2cnccc2[nH]1 | 16.9 | 67.5
